Assay results reported in patent US20250188123A1, “PROTEASE INHIBITORS” (Regents of the University of Minnesota, priority 2022, published 2025).

How the values were obtained:
cathepsin B = cathepsin B (Homo sapiens, UniProt P07858); assay: Activity at cathepsin B proteolytic enzyme; type: biochemical
thrombin = thrombin (Homo sapiens, UniProt P00734); assay: Activity at thrombin proteolytic enzyme; type: biochemical
[1] = tested on: cultured rat hippocampal neurons expressing GFP-tagged P301S tau; assay: Accumulation of P301S tau in dendritic spines of cultured hippocampal neurons; type: cell-based; details: 10 μM for 3 days
Excerpt: The disproportionate accumulation in dendritic spines of mutant tau linked to FTDP-17 depends upon tau-truncation by Casp2 (Zhao X, et al., Nat Med., 2016, 22, 1268-76). […] The P301S tau mutation linked to FTDP-17 (Bugiani O, et al., J Neuropathol Exp Neurol., 1999, 58, 667-677; and Lossos A, et al., J Neurol., 2003, 250, 733-740) was examined to determine whether Compound 1 could prevent the accumulation of tau in dendritic spines. Dissociated hippocampal neurons from postnatal day 0-1 rat pups were cultured. After 5-7 days in vitro (DIV), the neurons were co-transfected with plasmids encoding DsRed (to label neuronal morphology) and GFP-tagged wild-type or P301S mutant tau proteins (FIG. 2A), as previously described (Hoover B R, et al., Neuron., 2010, 68:1067-1081). Neurons at 17-18 DIV were incubated with 10 μM Compound 1 for 3 days and live neurons were imaged at 20-21 DIV.
For all cultured hippocampal neuron studies all human tau and DsRed constructs were expressed in the pRK5 vector and driven by the cytomegalovirus promoter (Clontech Inc.). Human tau proteins were N-terminally fused to enhance GFP (eGFP). The wild-type, native human tau construct encoded human four-repeat tau lacking the transcriptional-variant N-terminal sequences (0N4R) and contained exons 1, 4, 5, 7, 9-13, 14, and intron 13 (RRID: Addgene_46904). […]

SMILES: Cc1ccc2c(c1)CCN(C(=O)[C@@H](NC(=O)[C@H](CCCC(=O)O)NC(=O)C1Cc3ccccc3N1)C(C)C)[C@@H]2C(=O)N[C@H](C#N)CC(=O)O (stereo partly drawn) [Compound 1, (8)-6-(((S)-1-((8)-1-(((S)-2-carboxy-1-cyanoethyl)carbamoyl)-6-methyl-3,4-dihydroisoquinolin-2(1H)-yl)-3-methyl-1-oxobutan-2-yl)amino)-5-((S)-indoline-2-carboxamido)-6-oxohexanoic acid]
- activity at cathepsin B (cathepsin B): weak activity
- activity at thrombin (thrombin): weak activity
- density of dendritic spines ([1]; compared with untreated wild-type and P301S tau groups): no significant differences
- percentage of dendritic spines containing GFP-tagged tau ([1]; neurons expressing P301S tau, untreated P301S 75.5%, wild-type tau 21.9%): 24.8%
